Consider two compounds from patent publication US12686667B2, “Methods and compositions for gamma-glutamyl cycle modulation” (CANCER RESEARCH TECHNOLOGIES LLC, priority 2013, dated 2026).

For one data set, the system named is tumor. The experiment in a line: Anti-cancer activity of (L) versus (D) conformation compounds in animal models and compassionate use (summary statement). The data set is classed as in vivo. The settings on record: animal models and compassionate use treatment of human subjects. From the text: However, in contrast to D-penicillamine, the L-penicillamine stereoisomer is toxic, and has not been approved as a drug. […] Moreover, when the inventors compared the relative activities, the (L) conformation compounds of this disclosure appeared to be at least 2× as active as the corresponding racemate, due to the improved stereospecificity in the enzymatic catalysis of 5-oxoproline by 5 oxoprolinase.

Data set [1] in a line: LD50 toxicity study on Balb C mice. In kind it is in vivo. As to conditions: mouse, in vivo. The protocol:
LD50 data was measured, and exemplary gamma-glutamyl cycle inhibitor's toxicity study was conducted on Balb C Mice. A conjugate of L-penicillamine and methyl glyoxal (MGPA) was adminstered at about 4500 mg/kg ip, 5000 mg/kg oral. A conjugate of L-penicillamine and para-methoxyphenyl (PMPA) was administered at 5250 mg/kg ip, 5500 mg/kg oral; and a conjugate of L-penicillamine and citronellal (CNPA) was administered at 3250 mg/kg ip, 4500 mg/kg oral.

Structures are written as SMILES.

For the compound `COc1ccc(C2NC(C(=O)O)C(C)(C)S2)cc1` (stereo not drawn) [(D) stereoisomer], in the data set with tumor, the “anti-tumor / anti-cancer activity” value was “no activity”.
One may read the LD50 as the dose expected to kill half of the subjects tested. High values mean lower toxicity, low ones greater toxicity. For the compound `COc1ccc(C2N[C@@H](C(=O)O)C(C)(C)S2)cc1` (stereo partly shown) [PMPA], the “anti-tumor / anti-cancer activity” value in the data set with tumor is “potent anti-tumor activity”. The LD50 in data set [1] (5250 mg/kg, ip) was determined as 5250 mg/kg; in data set [1] (5500 mg/kg, oral), 5500 mg/kg.
